US9326986B2, “Quinazolinone, quinolone and related analogs as sirtuin modulators” (GLAXOSMITHKLINE LLC, priority 2008, dated 2016)

Target: T1, SIRT1 (Homo sapiens, UniProt Q96EB6)
T1 sequence (Q96EB6 1-747): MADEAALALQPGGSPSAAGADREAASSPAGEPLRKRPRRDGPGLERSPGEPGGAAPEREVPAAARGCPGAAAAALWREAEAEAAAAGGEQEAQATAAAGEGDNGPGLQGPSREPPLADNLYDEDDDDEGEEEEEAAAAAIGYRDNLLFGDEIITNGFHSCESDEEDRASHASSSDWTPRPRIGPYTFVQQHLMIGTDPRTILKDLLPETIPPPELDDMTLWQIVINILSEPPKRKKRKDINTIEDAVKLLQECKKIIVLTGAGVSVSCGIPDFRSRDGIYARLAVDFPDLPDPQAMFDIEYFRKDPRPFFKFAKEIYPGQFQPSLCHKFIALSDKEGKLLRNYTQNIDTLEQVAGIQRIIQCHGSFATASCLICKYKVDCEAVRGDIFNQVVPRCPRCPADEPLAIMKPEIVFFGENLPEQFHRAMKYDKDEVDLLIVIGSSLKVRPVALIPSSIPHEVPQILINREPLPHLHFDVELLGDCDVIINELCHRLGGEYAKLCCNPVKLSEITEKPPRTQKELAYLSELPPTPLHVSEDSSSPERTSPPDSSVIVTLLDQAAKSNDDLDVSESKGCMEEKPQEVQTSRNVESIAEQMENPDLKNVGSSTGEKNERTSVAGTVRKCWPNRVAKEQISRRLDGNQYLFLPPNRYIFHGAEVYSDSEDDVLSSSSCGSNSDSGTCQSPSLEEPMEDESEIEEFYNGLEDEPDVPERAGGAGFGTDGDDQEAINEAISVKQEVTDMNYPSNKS
Assay: Mass spectrometry based assay to identify modulators of SIRT1 activity (deacetylation of p53-based acetylated peptide)
Type: biochemical
Details: 10 nM SIRT1, 0.5 μM peptide substrate, 120 μM βNAD+, 25 minutes at 25° C.; for EC1.5 μM: SIRT1 activation

| Structure (SMILES) | % Fold Act. (percent maximum fold activation) | EC1.5 μM |
| --- | --- | --- |
| Cn1c(-c2ccncc2)nc2c(C(=O)Nc3ccccn3)cccc2c1=O [Compound 223] | B (Fold Activation<200%) | C (EC1.5>25 μM) |
| Cn1c(-c2cccc(OC(F)F)c2)nc2c(C(=O)Nc3ccccn3)cccc2c1=O [Compound 326] | A (Fold activation>200%) | A (EC1.5<1.0 μM) |
| Cn1c(-c2ccc(C(F)(F)F)cc2)nc2c(C(=O)Nc3ccccn3)cccc2c1=O [Compound 208] | B (Fold Activation<200%) | C (EC1.5>25 μM) |
| Cn1c(-c2cccc(C(F)(F)F)c2)nc2c(C(=O)Nc3ccnc(N4CCOCC4)c3)cccc2c1=O [Compound 304] | A (Fold activation>200%) | A (EC1.5<1.0 μM) |
| O=C(Nc1cccc2c(=O)cc(-c3cccc(C(F)(F)F)c3)[nH]c12)c1cncs1 [Compound 416] | A (Fold activation>200%) | A (EC1.5<1.0 μM) |
| O=C(Nc1cccc2c(=O)cc(-c3cccc(C(F)(F)F)c3)[nH]c12)c1cncnc1 [Compound 421] | A (Fold activation>200%) | B (EC1.5 1-25 μM) |
| Cn1c(-c2cccc(C(F)(F)F)c2)nc2c(C(=O)Nc3ccc(CN4CC[C@H](F)C4)cn3)cccc2c1=O [Compound 346] | A (Fold activation>200%) | A (EC1.5<1.0 μM) |
| Cn1c(-c2cccc(C(F)(F)F)c2)nc2c(C(=O)Nc3cccc(OCC(O)CO)c3)cccc2c1=O (stereo not drawn) [Compound 360] | A (Fold activation>200%) | A (EC1.5<1.0 μM) |
| O=C(Nc1ccccn1)c1cccc2c(=O)cc(-c3cccc(C(F)(F)F)c3)[nH]c12 [Compound 401, 4-oxo-N-(pyridin-2-yl)-2-(3-(trifluoromethyl)phenyl)-1,4-dihydroquinoline-8-carboxamide] | A (Fold activation>200%) | A (EC1.5<1.0 μM) |
| O=C(Nc1cccc2c(=O)cc(-c3cccc(Cl)c3)[nH]c12)c1cnccn1 [Compound 447] | A (Fold activation>200%) | A (EC1.5<1.0 μM) |
| O=C(Nc1cccc2c(=O)cc(-c3cccc(C(F)(F)F)c3)[nH]c12)c1cccc(N2CCOCC2)n1 [Compound 425] | A (Fold activation>200%) | A (EC1.5<1.0 μM) |
| Cn1c(-c2cccc(C(F)(F)F)c2)nc2c(NC(=O)C3CCCC(=O)N3)cccc2c1=O (stereo not drawn) [Compound 365] | A (Fold activation>200%) | B (EC1.5 1-25 μM) |
| O=C(Nc1cccc2c(=O)n(CCN3CCCC3)c(-c3cccc(C(F)(F)F)c3)nc12)c1cnccn1 [Compound 235] | A (Fold activation>200%) | B (EC1.5 1-25 μM) |
| O=C(Nc1ccncc1)c1cccc2c(=O)cc(-c3cccc(C(F)(F)F)c3)[nH]c12 [Compound 402] | A (Fold activation>200%) | A (EC1.5<1.0 μM) |
| O=C(Nc1cccc2c(=O)cc(-c3cccc(C(F)(F)F)c3)[nH]c12)c1ncccn1 [Compound 417] | A (Fold activation>200%) | A (EC1.5<1.0 μM) |
| COc1ccc(NC(=O)c2cccc3c(=O)n(C)c(-c4cccc(C(F)(F)F)c4)nc23)cc1OC [Compound 220, N-(3,4-dimethoxyphenyl)-3-methyl-4-oxo-2-(3-(trifluoromethyl)phenyl)-3,4-dihydroquinazoline-8-carboxamide] | A (Fold activation>200%) | A (EC1.5<1.0 μM) |
| Cn1c(-c2cccc(C(F)(F)F)c2)nc2c(C(=O)Nc3ccnc(CN4CCOCC4)n3)cccc2c1=O [Compound 307] | A (Fold activation>200%) | B (EC1.5 1-25 μM) |
| Cn1c(-c2cccc(C(F)(F)F)c2)nc2c(NC(=O)c3cscn3)cccc2c1=O [Compound 201] | B (Fold Activation<200%) | A (EC1.5<1.0 μM) |
| Cn1c(-c2cccc(C(F)(F)F)c2)nc2c(C(=O)Nc3cccc(CN4CCOCC4)c3)cccc2c1=O [Compound 302] | A (Fold activation>200%) | A (EC1.5<1.0 μM) |

Further lines, results first:

| % Fold Act. (percent maximum fold activation) | EC1.5 μM | Structure (SMILES) |
| --- | --- | --- |
| B (Fold Activation<200%) | C (EC1.5>25 μM) | Cn1c(-c2ncccn2)nc2c(C(=O)Nc3ccccn3)cccc2c1=O [Compound 259] |
| A (Fold activation>200%) | B (EC1.5 1-25 μM) | O=C(Nc1ccccn1)c1cccc2c(=O)[nH]c(-c3ccccc3OC(F)F)nc12 [Compound 328] |
| A (Fold activation>200%) | A (EC1.5<1.0 μM) | O=C(Nc1cccc2c(=O)cc(-c3cccc(C(F)(F)F)c3)[nH]c12)c1cccnc1 [Compound 419] |
| A (Fold activation>200%) | A (EC1.5<1.0 μM) | O=C(Nc1cccc2c(=O)[nH]c(-c3ccccc3C(F)F)nc12)c1cnccn1 [Compound 329] |
| A (Fold activation>200%) | A (EC1.5<1.0 μM) | CCCn1c(-c2cccc(C(F)(F)F)c2)nc2c(NC(=O)c3cnccn3)cccc2c1=O [Compound 233] |
| A (Fold activation>200%) | A (EC1.5<1.0 μM) | Cn1c(-c2cccc(C(F)(F)F)c2)nc2c(C(=O)Nc3cccc(CN4CCCC4)n3)cccc2c1=O [Compound 351] |
| A (Fold activation>200%) | A (EC1.5<1.0 μM) | O=C(Nc1cccc2c(=O)cc(-c3ccccc3C(F)(F)F)[nH]c12)c1cnccn1 [Compound 445] |
| A (Fold activation>200%) | A (EC1.5<1.0 μM) | O=C(Nc1cccc2c(=O)cc(-c3cccc(C(F)(F)F)c3)[nH]c12)c1cscn1 [Compound 405] |
| B (Fold Activation<200%) | C (EC1.5>25 μM) | Cn1nccc1-c1nc2c(C(=O)Nc3ccccn3)cccc2c(=O)n1C [Compound 264] |
| A (Fold activation>200%) | B (EC1.5 1-25 μM) | Cn1c(-c2cccc(C(F)(F)F)c2)nc2c(C(=O)Nc3ccc(CN4CCOCC4)nc3)cccc2c1=O [Compound 301] |
| A (Fold activation>200%) | A (EC1.5<1.0 μM) | O=C(Nc1nccs1)c1cccc2c(=O)cc(-c3cccc(Cl)c3)[nH]c12 [Compound 433] |
| B (Fold Activation<200%) | C (EC1.5>25 μM) | Cn1ccc(-c2nc3c(NC(=O)c4cnccn4)cccc3c(=O)n2C)n1 [Compound 290] |
| B (Fold Activation<200%) | C (EC1.5>25 μM) | Cn1c(-c2ccc(OC(F)(F)F)cc2)nc2c(NC(=O)c3cnccn3)cccc2c1=O [Compound 252] |
| A (Fold activation>200%) | A (EC1.5<1.0 μM) | Cn1c(-c2cccc(C(F)(F)F)c2)nc2c(C(=O)Nc3ccnc(OCC(O)CO)n3)cccc2c1=O (stereo not drawn) [Compound 355] |
| A (Fold activation>200%) | B (EC1.5 1-25 μM) | O=C(Nc1ccccn1)c1cccc2c(=O)[nH]c(-c3ccccc3C(F)(F)F)nc12 [Compound 321] |
| A (Fold activation>200%) | B (EC1.5 1-25 μM) | Cn1c(-c2cccc(C(F)(F)F)c2)nc2c(C(=O)Nc3ccncc3)cccc2c1=O [Compound 266] |
| B (Fold Activation<200%) | C (EC1.5>25 μM) | O=C(Nc1cccc2c(=O)[nH]c(-c3cccc(OC(F)F)c3)nc12)c1cnccn1 [Compound 316] |
| A (Fold activation>200%) | A (EC1.5<1.0 μM) | O=C(Nc1cccnc1)c1cccc2c(=O)cc(-c3ccccc3C(F)(F)F)[nH]c12 [Compound 437] |
| B (Fold Activation<200%) | C (EC1.5>25 μM) | Cn1cc(-c2nc3c(NC(=O)c4cnccn4)cccc3c(=O)n2C)cn1 [Compound 291] |
| B (Fold Activation<200%) | C (EC1.5>25 μM) | Cn1cc(C(=O)Nc2cccc3c(=O)n(C)c(-c4cccc(C(F)(F)F)c4)nc23)cn1 [Compound 268] |
| A (Fold activation>200%) | A (EC1.5<1.0 μM) | Cn1c(-c2cccc(C(F)(F)F)c2)nc2c(C(=O)Nc3cccc(CN4CC[C@H](F)C4)n3)cccc2c1=O [Compound 352] |
| B (Fold Activation<200%) | B (EC1.5 1-25 μM) | Cn1c(-c2ccccc2Cl)nc2c(C(=O)Nc3ccccn3)cccc2c1=O [Compound 242] |
| B (Fold Activation<200%) | C (EC1.5>25 μM) | Cn1c(-c2cnccn2)nc2c(C(=O)Nc3ccccn3)cccc2c1=O [Compound 258] |
